Read-outs that look alike come from different tables or passages of the source.
What was measured:
canine Leishmaniosis [1] = conditions: conventional treatments monitored by serology, bibliography, cited from earlier work
canine Leishmaniosis [2] = experiment: Controlled study of a domperidone treatment plan in seronegative dogs in an endemic area (Example 5); format: in vivo, dog; conditions: treated group n = 120, two 30-day treatments at 0.5 mg/kg/day oral
Excerpt: The study lasted for 9 months, beginning at the onset of the activity period of the vector insect in the geographical area in which animals were found and closing three months after the end of this period. The presence of the vector was confirmed before starting the treatment.
The remaining 120 animals received a placebo under an equivalent dosage regime.

L. Infantum = conditions: 2 mg/kg/day, dogs infected with L. Infantum, ES 2246142; cited from earlier work
neutrophils = experiment: NBT reduction test in whole blood of healthy dogs: activated neutrophils; format: in vivo, dog
Method: (§1) 20 dogs of different breed, sex and age, were randomly distributed into two groups of 10. […] During the study several visits were paid (days 0, 15, 30, 60 and 90) during which some clinical examinations were done and blood samples were collected for biochemical, haemathological and serological analyses (DAT). The percentages of activated monocytes and neutrophils were determined in whole blood samples through the nitroblue tetrazolium (NBT) reduction test.

canine Leishmaniosis [3] = experiment: Clinical study of Domperidone alone in dogs with initial stage Leishmaniosis (Example 6); format: in vivo, dog; conditions: for percentage of dogs with antibody titre lower than DAY 0: oral 1 mg/kg/12 h (<30 kg) or 0.7 mg/kg/12 h for 30 days, 70 dogs
Method: A clinical study was performed including a group of 70 dogs with an initial stage of Leishmaniosis (antibody titre against Leishmania between 1/800 and 1/1600-threshold of positively 1/800-and oligosymptomatics).
[…] During said controls different immunological (antibody titre against Leishmania-DAT, intradermoreaction test-Leishmanina), clinical (clinical symptoms, body weight) and analytical (biochemical profile, haematology, proteinogram and urine test for the determination of UPC ratio) parameters were assessed.

prolactine hormone = conditions: for Tmax of prolactine (time to maximum prolactine concentration), mean: male dog, serum
Method: During each of the 7 phases blood samples were extracted at different times (t=0 h, 0.5 h, 1 h, 2 h, 4 h, 6 h, 8 h, 10 h, 12 h, 18 h, 36 y 48 h) for determining serum concentrations of prolactine using a commercial immuno enzymatic assay kit.

Leishmania infantum = experiment: Circulating monocyte-derived macrophages from treated healthy dogs, in vitro infection with Leishmania infantum promastigotes; format: cell-based
Excerpt: It is designed as a prospective monocentric study. A total of 10 dogs have been included, each of them acting as its own control, for which reason it has not been considered necessary the use of a negative control. […] During the study several visits are paid the days 0 (basal), 15 and 30 of treatment, and days 60 and 90 (one and two months after finishing the treatment, respectively). During each visit blood is collected from animals and it is processed to isolate and culture monocytes-macrophages, which are then co-cultivated with Leishmania promastigotes. After 48 hours the nitroblue tetrazolium (NBT) reduction test is carried out on the cultures and the percentage of parasited macrophages and the number of amastigotes per macrophage were measured. Blood samples are also collected on days 0 and 90 to assess animal health by biochemical and haemathological analyses.

canine Leishmaniosis [4] = tested on: canine Leishmaniosis
monocytes = experiment: NBT reduction test in whole blood of healthy dogs: activated monocytes; format: in vivo, dog
Method: as §1

[5] = Day 0 (before treatment), 0.5 mg/kg/day oral for 30 days, healthy dogs n = 10
[6] = Day 15, 0.5 mg/kg/day oral for 30 days, healthy dogs n = 10
[7] = Day 30, 0.5 mg/kg/day oral for 30 days, healthy dogs n = 10
[8] = Day 90 (60 days after end of treatment), 0.5 mg/kg/day oral for 30 days
[9] = sample of Day 0 (basal), dogs given 0.5 mg/kg/day oral for 30 days
[10] = sample of Day 15, dogs given 0.5 mg/kg/day oral for 30 days
[11] = sample of Day 30, dogs given 0.5 mg/kg/day oral for 30 days
[12] = sample of Day 60 (one month after end of treatment)
[13] = sample of Day 90 (two months after end of treatment)

Oc1ncnc2[nH]ncc12 [Alopurinol]
time after onset of treatment until decrease in the antibody titre against Leishmania is observed (canine Leishmaniosis [1]): ≥ 180 days | time after onset of treatment until decrease in the antibody titre against Leishmania is observed (canine Leishmaniosis [1]; listed as alopurinol): 180 days

O=c1[nH]c2ccccc2n1CCCN1CCC(n2c(=O)[nH]c3cc(Cl)ccc32)CC1 [Domperidone]
animals with seropositivity against Leishmania (DAT≧1/400) at the end of the study (canine Leishmaniosis [2]): 0% | animals showing clinical symptoms indicative of adverse reactions attributable to the medication (canine Leishmaniosis [2]; 9 months): None | Animals WITH signs of canine Leishmaniosis, accumulated percentage (canine Leishmaniosis [2]; end of study (9th month)): 0% | Animals WITHOUT signs of canine Leishmaniosis, accumulated percentage (canine Leishmaniosis [2]; end of study (9th month)): 100% | effect on clinical signs of Leishmaniosis and level of antibodies (L. Infantum): able to reduce the clinical signs of Leishmaniosis and/or to reduce the level of antibodies in infected animals | percentage of activated neutrophils, mean (neutrophils; [5]): 5.700% | percentage of activated neutrophils, mean (neutrophils; [6]): 38.50% | percentage of activated neutrophils, mean (neutrophils; [7]): 40.00% | percentage of activated neutrophils, mean (neutrophils; [8]): 5.900% | percentage of dogs with antibody titre lower than DAY 0 (canine Leishmaniosis [3]; DAY 30): 10% | percentage of dogs with antibody titre lower than DAY 0 (canine Leishmaniosis [3]; DAY 90): 47% | percentage of dogs with antibody titre lower than DAY 0 (canine Leishmaniosis [3]; DAY 180): 57% | animals with total disappearance of clinical symptoms (mainly lymphadenopathy) (canine Leishmaniosis [3]; in the course of the 12 months after the onset of the treatment): 100% | average concentrations of prolactine in the first 36 hours after administration versus placebo (prolactine hormone; all six dosages 0.125-4 mg/kg, single oral dose): remained above the prolactine concentration in the group treated with the placebo | Tmax of prolactine (time to maximum prolactine concentration), mean (prolactine hormone; single oral dose 0.125 mg/kg): 8.6 h | Tmax of prolactine (time to maximum prolactine concentration), mean (prolactine hormone; single oral dose 0.250 mg/kg): 7.2 h | Tmax of prolactine (time to maximum prolactine concentration), mean (prolactine hormone; single oral dose 0.5 mg/kg): 3.7 h | Tmax of prolactine (time to maximum prolactine concentration), mean (prolactine hormone; single oral dose 1 mg/kg): 2.7 h | Tmax of prolactine (time to maximum prolactine concentration), mean (prolactine hormone; single oral dose 2 mg/kg): 5.0 h | Tmax of prolactine (time to maximum prolactine concentration), mean (prolactine hormone; single oral dose 4 mg/kg): 4.6 h | number of amastigotes per macrophage after 48 hours of in vitro co-culture with Leishmania infantum promastigotes, mean (Leishmania infantum; [9]): 44.4 | percentage of positive NBT macrophages after 48 hours of co-culture with Leishmania infantum promastigotes, mean (Leishmania infantum; [9]): 2.00% | number of amastigotes per macrophage after 48 hours of in vitro co-culture with Leishmania infantum promastigotes, mean (Leishmania infantum; [10]): 9.7 | percentage of positive NBT macrophages after 48 hours of co-culture with Leishmania infantum promastigotes, mean (Leishmania infantum; [10]): 61.10% | number of amastigotes per macrophage after 48 hours of in vitro co-culture with Leishmania infantum promastigotes, mean (Leishmania infantum; [11]): 11.3 | percentage of positive NBT macrophages after 48 hours of co-culture with Leishmania infantum promastigotes, mean (Leishmania infantum; [11]): 62.20% | number of amastigotes per macrophage after 48 hours of in vitro co-culture with Leishmania infantum promastigotes, mean (Leishmania infantum; [12]): 23.1 | percentage of macrophages infected after 48 hours of in vitro culture with Leishmania infantum promastigotes, mean (Leishmania infantum; [12]): 82.6% | percentage of positive NBT macrophages after 48 hours of co-culture with Leishmania infantum promastigotes, mean (Leishmania infantum; [12]): 1.70% | number of amastigotes per macrophage after 48 hours of in vitro co-culture with Leishmania infantum promastigotes, mean (Leishmania infantum; [13]): 42.6 | percentage of macrophages infected after 48 hours of in vitro culture with Leishmania infantum promastigotes, mean (Leishmania infantum; [13]): 89.5% | percentage of positive NBT macrophages after 48 hours of co-culture with Leishmania infantum promastigotes, mean (Leishmania infantum; [13]): 1.80% | Animals WITH signs of canine Leishmaniosis, accumulated percentage (canine Leishmaniosis [4]; 0.5 mg/kg, 720 h): 11% | Animals WITHOUT signs of canine Leishmaniosis, accumulated percentage (canine Leishmaniosis [4]; 0.5 mg/kg, 720 h): 85% | Animals WITH signs of canine Leishmaniosis, accumulated percentage (canine Leishmaniosis [4]; treated group n = 45, 0.5 mg/kg/day for 30 days each four months, end of study (second year), highly endemic area): 11% | percentage of activated monocytes, mean (monocytes; [5]): 3.200% | percentage of activated monocytes, mean (monocytes; [6]): 26.10% | percentage of activated monocytes, mean (monocytes; [7]): 26.40% | percentage of activated monocytes, mean (monocytes; Day 60 (30 days after end of treatment), 0.5 mg/kg/day oral for 30 days): 8.600% | percentage of activated monocytes, mean (monocytes; [8]): 3.100%
